Tests used:
HCT116 cell line = assay: Anti-proliferative activity, Alamar Blue assay; assay type: cell-based; conditions: HCT-116, human colon cancer cell line HCT116, 72 hours with compound, read-out: IC50 values against the HCT116 cell line
Protocol: The anti-proliferative activities of compounds of the invention can be determined by measuring the ability of the compounds to inhibition of cell growth in a number of cell lines such as the human colon cancer cell line HCT116. Inhibition of cell growth is measured using the Alamar Blue assay (Nociari, M. M, Shalev, A., Benias, P., Russo, C. Journal of Immunological Methods 1998, 213, 157-167). The method is based on the ability of viable cells to reduce resazurin to its fluorescent product resorufin. For each proliferation assay cells are plated onto 96 well plates and allowed to recover for 16 hours prior to the addition of inhibitor compounds for a further 72 hours. At the end of the incubation period 10% (v/v) Alamar Blue is added and incubated for a further 6 hours prior to determination of fluorescent product at […]. In the case of the non-proliferating cell assay cells are maintained at confluence for 96 hour prior to the addition of inhibitor compounds for a further 72 hours. The number of viable cells is determined by Alamar Blue assay as before. Cell lines can be obtained from the ECACC (European Collection of cell Cultures).

[1] = biological target: T1, Human Hsp90α N-terminal domain (Homo sapiens, UniProt P07900); assay: Isothermal titration calorimetry (ITC); assay type: binding; conditions: pH 7.4
T1 construct: purification of the Human Hsp90α N-terminal domain were performed according to published methods; made in house
Protocol: The ability of the compounds of the invention to bind to human Hsp90 proteins was determined using isothermal titration calorimetry.
Isothermal titration calorimetry (ITC) experiments were performed with a VP-ITC titration calorimeter (Microcal Inc., Northampton, Mass., USA). […] All solutions were filtered and degassed prior to a titration being carried out. The enthalpy change resulting from each injection of ligand was obtained through integration of the calorimetric signal. Data were analysed using Origin 7.0 (Microcal Software Inc., Northampton, Mass.). Heats of dilution were estimated using the final injections of each individual titration and subtracted before data fitting. Different ITC experimental formats were employed in order to obtain compound dissociation constants (Kd's) over a wide range of affinities. […] In this type of experiment the stoichiometry parameter (N) was locked at 1 for data fitting.

Compound | IC50 (HCT116 cell line) | Kd [1]
CC(C)(C)c1cc(C(=O)N2CCC(O)(c3ccccc3)CC2)ccc1O [Example 37, (3-tert-Butyl-4-hydroxy-phenyl)-(4-hydroxy-4-phenyl-piperidin-1-yl)-methanone] | < 10 µM | –
CC(C)c1cc(C(=O)N(CCC#N)c2ccc(F)cc2)c(O)cc1O [Example 72, N-(2-cyano-ethyl)-N-(4-fluoro-phenyl)-2,4-dihydroxy-5-isopropyl-benzamide] | < 10 µM | –
CC(C)c1cc(C(=O)N(Cc2ccccc2)c2ccc(CN3CCOCC3)cc2)c(O)cc1O [Example 65, N-benzyl-2,4-dihydroxy-5-isopropyl-N-(4-morpholin-4-ylmethyl-phenyl)-benzamide] | < 10 µM | < 1 µM
CC(C)c1cc(C(=O)N2CCC(CCO)CC2)c(O)cc1O [Example 57] | < 10 µM | < 1 µM
CC(C)c1cc(C(=O)N2CCC(CO)CC2)c(O)cc1O [Example 58, (2,4-dihydroxy-5-isopropyl-phenyl)-(4-hydroxymethyl-piperidin-yl)-methanone] | < 10 µM | –
CC(C)c1cc(C(=O)N2CCOC(CO)C2)c(O)cc1O (stereo not shown) [Example 55, (2,4-dihydroxy-5-isopropyl-phenyl)-(2-hydroxymethyl-morpholin-4yl)-methanone] | < 10 µM | < 1 µM
CC1CN(C(=O)c2cc(C(C)C)c(O)cc2O)CC(C)O1 (stereo not shown) [Example 59, (2,4-dihydroxy-5-isopropyl-phenyl)-(2,6-dimethyl-morpholin-4-yl)-methanone] | < 10 µM | –
CCOC(=O)CC1CCN(C(=O)c2cc(C(C)C)c(O)cc2O)CC1 [Example 60, [1-(2,4-dihydroxy-5-isopropyl-benzoyl)-piperidin-4-yl)-acetic acidethyl ester] | < 10 µM | –
CC(C)c1cc(C(=O)N2CCOCC2)ccc1O [Example 20, (4-Hydroxy-3-isopropyl-phenyl)-morpholin-4-yl-methanone] | – | < 1 µM
CC(C)c1cc(C(=O)N(C)c2ccc(CN3CCOCC3)cc2)c(O)cc1O [Example 64, 2,4-dihydroxy-5-isopropyl-N-methyl-N-(4-morpholin-4-yl-methyl-phenyl)-benzamide] | < 10 µM | –
CCN(C(=O)c1cc(C(C)C)c(O)cc1O)c1ccc(F)cc1 [Example 71, N-ethyl-N-(4-fluoro-phenyl)-2,4-dihydroxy-5-isopropyl-benzamide] | < 10 µM | –
CNC(=O)CN(C(=O)c1cc(C(C)C)c(O)cc1O)c1ccc(F)cc1 [Example 62, N-(4-fluoro-phenyl)-2,4-dihydroxy-5-isopropyl-N-methylcarbamoylmethyl-benzamide] | < 10 µM | –
CC(C)(C)c1cc(C(=O)N2CCOCC2)c(O)cc1O [Example 54, (5-tert-Butyl-2,4-dihydroxy-phenyl)-morpholin-4-yl-methanone] | < 10 µM | < 1 µM
CC(C)c1cc(C(=O)N(C)c2ccc(F)cc2)c(O)cc1O [Example 70, N-(4-fluoro-phenyl)-2,4-dihydroxy-5-isopropyl-N-methyl-benzamide] | < 10 µM | –
CC(C)c1cc(C(=O)N2CCN(C(=O)OC(C)(C)C)CC2)c(O)cc1O [Example 69, 4-(2,4-dihydroxy-5-isopropyl-benzoyl)-piperazine-1-carboxylic acidtert-butyl ester] | < 10 µM | –
CNC(=O)CN(C(=O)c1cc(C(C)C)c(O)cc1O)c1ccc(CN2CCOCC2)cc1 [Example 63, 2,4-dihydroxy-5-isopropyl-N-methylcarbamoylmethyl-N-(4-morpholin-4-ylmethyl-phenyl)-benzamide] | < 10 µM | –
CC(C)c1cc(C(=O)N2CCN(CCN(C)C)CC2)c(O)cc1O [Example 56, (2,4-dihydroxy-5-isopropyl-phenyl)-[4-(2-dimethylamino-ethyl)-piperazin-1-yl]-methanone] | < 10 µM | < 1 µM
CC(C)c1cc(C(=O)N(c2ccc(F)cc2)C2CCOCC2)c(O)cc1O [Example 73, N-(4-fluoro-phenyl)-2,4-dihydroxy-5-isopropyl-N-(tetrahydro-pyran-4-yl)-benzamide] | < 10 µM | < 1 µM
CC(C)c1cc(C(=O)N2CCS(=O)(=O)CC2)c(O)cc1O [Example 68, (2,4-dihydroxy-5-isopropyl-phenyl)-(1,1-dioxo-1lambda*6*-thiomorpholin-4-yl)-methanone] | < 10 µM | –
CC(C)c1cc(C(=O)N2CCOCC2)c(O)cc1O [Example 29, (2,4-Dihydroxy-5-isopropyl-phenyl)-morpholin-4-yl-methanone] | – | < 1 µM
CC(C)c1cc(C(=O)N2CCN(C)CC2)c(O)cc1O [Example 66, (2,4-dihydroxy-5-isopropyl-phenyl)-(4-methyl-piperazin-1-yl)-methanone] | < 10 µM | –
CC(C)c1cc(C(=O)N2CC[C@@H](O)C2)c(O)cc1O (stereo in doubt) [Example 61, (2,4-dihydroxy-5-isopropyl-phenyl)-(3-hydroxy-pyrrolidin-1yl)-methanone] | < 10 µM | –
